{"source": "patent US20160052918A1", "about": "“SMALL COMPOUNDS TARGETING TACC3” (JAPANESE FOUNDATION FOR CANCER RESEARCH, priority 2012, published 2016)", "format_in_all_cases": "cell-based", "key": {"[1]": {"system": "SKOV-3 cells expressing EGFP-α-tubulin", "test": "Cell fate determination by time-lapse photography, SKOV-3", "settings": "13.3 μg/ml SPL-A or 2.7 μg/ml SPL-B", "experimental": "(§1) The cells used were SKOV-3 cells and OVCAR-3 cells expressing EGFP-α-tubulin.\n(§2) The OVCAR-3 cells expressing EGFP-α-tubulin were obtained using the same procedure as that for the SKOV-3 cells expressing EGFP-α-tubulin. The cells supplemented with each of SPL-A and SPL-B were synchronized by double thymidine block in the same way as in Example 2. Images were obtained by time-lapse photography and analyzed. The cells of each line were treated with 13.3 μg/ml SPL-A or 2.7 μg/ml SPL-B. The cell fate was manually determined from the image sequence of at least 50 cells with the time point of nuclear envelope breakdown defined as 0."}, "[2]": {"system": "cancer cell lines SKOV-3 and OVCAR-3", "test": "G2/M-phase cells by PI flow cytometry, cancer cell lines", "settings": "two cancer cell lines, 24 hours, FIG. 10", "experimental": "(§3) (A) Two cancer cell lines SKOV-3 and OVCAR-3 and three normal cell lines hTERT-RPE, MCF 10A, and 184B5 were treated with SPL-A at concentrations shown in the abscissa of FIG. 10A for 24 hours, then stained with propidium iodide (PI), and analyzed by flow cytometry.\n(§4) The same two cancer cell lines and three normal cell lines as in (A) were treated with each of paclitaxel, vincristine, and vinblastine acting on microtubule formation, S-trityl-L-cysteine (STLC) and SB743921 acting on proteins involved in mitosis, an Aurora kinase inhibitor VX680, and a polo-like kinase (PLK) inhibitor BI2536 at concentrations shown in the abscissa of FIG. 10B for 24 hours, then stained with propidium iodide (PI), and analyzed by flow cytometry."}, "SKOV-3 cells": {"system": "SKOV-3 cells", "test": "Abnormal spindle morphology by immunostaining, SKOV-3", "settings": "24 hours", "experimental": "(§5) SPL-A was added at each concentration to the SKOV-3 or OVCAR-3 cells. Twenty four hours after incubation, the cells were fixed and immunostained using antibodies against cell division-related substances such as α-tubulin described below. The percentage of spindle morphology was determined from at least 50 cells. The data was indicated by a mean of three independent experiments and SD.\n(§6) The immunostaining was carried out by the following method: the cells were fixed in 3.7% PFA, methanol, or 10% TCA on a chamber slide, then permeabilized with 0.2% Triton-X100 in PBS, and incubated with primary antibodies. A monoclonal antibody (DM1A) against α-tubulin and monoclonal antibodies (DQ19 and GTU-88) against γ-tubulin were obtained from Sigma-Aldrich Corp. An anti-centrin 2 antibody (sc-27793) was purchased from Santa Cruz Biotechnology, Inc. Fluorescent labelled goat anti-mouse IgG (Cappel) and Cy3 labelled goat anti-rabbit IgG (Millipore) antibodies were used as secondary antibodies. DNA was detected using 4,6-diamidino-2-phenylindole (DAPI). Images were obtained using Leica DM6000B microscope equipped with ×100/1.40-0.70 PlanApo objective lens and Z-projections.\n(§7) FIGS. 5A and B show the results of analyzing spindle morphology. The percentage of spindle morphology was indicated by the percentage (%) of normal, multipolar, disorganized, or monopolar spindles to the number of mitotic cells. […]"}, "mouse lymphoma cell line": {"system": "mouse lymphoma cell line", "test": "Cell death of lymphoma (survival rate, WST-1)", "settings": "72 h, IC50=50% survival rate, three days", "experimental": "The synthesized compounds were analyzed for their activity against cell death induction using a mouse lymphoma cell line (see Non Patent Literature 12), which was a cell line derived from thymic lymphoma developed in p53KO mouse.\nThe number of the lymphoma cells was adjusted to 1.2×10^5 cells/ml. The cells were inoculated at a concentration of 50 μl/well to a 96-well culture dish. A medium containing each RT compound as the novel compound of the present invention at twice the concentration of 50 μl was further added thereto (final concentration: 0.021 to 13.3 μg/ml). Three days after cultivation, the survival rate was calculated using WST-1 reagent (manufactured by F. Hoffmann-La Roche, Ltd.)."}, "OVCAR-3 cells": {"system": "OVCAR-3 cells", "test": "Abnormal spindle morphology by immunostaining, OVCAR-3", "settings": "24 hours", "experimental": "as §5, §6, §7"}, "[3]": {"system": "SKOV-3 cells expressing EGFP-α-tubulin", "test": "Mitotic arrest of synchronized EGFP-α-tubulin-expressing SKOV-3 cells, time-lapse single-cell analysis", "experimental": "The EGFP-α-tubulin-expressing cells used in the assay will be described. In order to observe mitosis under a fluorescence microscope, cells expressing EGFP-α-tubulin (fusion protein of a fluorescent protein, EGFP, and α-tubulin) were prepared. A system observable under a fluorescence microscope without cell fixation was prepared.\nOvary cancer cells SKOV-3 were cultured in an RPMI1640 medium supplemented with 5% fetal bovine serum. Stable cells expressing EGFP-α-tubulin were transduced by lentiviral transduction using pLenti4/V5-DEST vectors (Registered Trade Mark) (manufactured by Invitrogen Corp.) and selected by the FACS sorting of infected cells using Zeocin (Registered Trade Mark) and subsequent FACSAria (Registered Trade Mark) (Becton, Dickinson and Company).\nThe compounds NPD2448, NPD2568, NPD3574, NPD4089, and C7—O-propylated NPD3574 were each added at varying concentrations to the culture medium of SKOV-3 cells expressing EGFP-α-tubulin and analyzed for their effect on cell division.\nThe SKOV-3 cells expressing EGFP-α-tubulin were synchronized by thymidine block to analyze the effect on cell division of each compound. As shown in the upper part of FIG. 2, each compound was added to the culture medium after the 1st thymidine block. After synchronization by the second thymidine block, images were taken every 2 minutes for 3 days using Leica AF6000 and ×20/0.5 Plan Fluotar objective lens in a phenol red-free RPMI1640 medium supplemented with 5% fetal bovine serum. These time-lapse images were analyzed using ImageJ 1.42a software, and the time of mitotic arrest was determined by visual judgment. The duration of mitosis was manually determined from the image sequences of at least 50 cells.\nThe mitotic arrest (EC50=50% arrest rate) was tested by the microscopic analysis of individual single cells.\nEGFP-α-tubulin-expressing SKOV-3 cells synchronized by double thymidine block in the same way as in Example 2 were treated with each synthesized compound and subjected to time-lapse photography for 3 days. At least 50 cells were observed. The time of arrest of each cell was calculated, and EC50 was determined therefrom.\nEGFP-α-tubulin-expressing SKOV-3 cells supplemented with each of SPL-A and SPL-B at varying concentrations were synchronized by double thymidine block in the same way as in Example 2. Analysis based on single cells was conducted by time-lapse photography. The duration of mitosis was measured from the image sequences of at least 50 cells."}, "[4]": {"system": "OVCAR-3 cells expressing EGFP-α-tubulin", "test": "Cell fate determination by time-lapse photography, OVCAR-3", "settings": "13.3 μg/ml SPL-A or 2.7 μg/ml SPL-B", "experimental": "as §1, §2"}, "[5]": {"system": "normal cell lines hTERT-RPE, MCF 10A, and 184B5", "test": "G2/M-phase cells by PI flow cytometry, normal cell lines", "settings": "3 normal cell lines, 24 hours, FIG. 10", "experimental": "as §3, §4"}}, "data": [{"compound": "O=c1cc(-c2cc3ccccc3oc2=O)c2ccc(O)c(CN3CCC(CCO)CC3)c2o1", "note": "[RT-011]", "values": [{"measurement": "cell fate of most cells", "setting": "[1]", "result": "mitotic slippage"}, {"measurement": "percentage of G2/M-phase cells / cell division", "setting": "[2]", "result": "increased the percentage of G2/M-phase cells in a concentration-dependent manner"}, {"measurement": "percentage of cells with multipolar spindles", "setting": "SKOV-3 cells; SKOV-3, 1.25 μg/ml", "result": 53.3, "unit": "%"}, {"measurement": "percentage of cells with disorganized spindles", "setting": "SKOV-3 cells; SKOV-3, 5 μg/ml", "result": 56.7, "unit": "%"}, {"measurement": "IC50", "setting": "mouse lymphoma cell line", "result": 2.15, "unit": "µg/mL"}, {"measurement": "percentage of cells with multipolar spindles", "setting": "OVCAR-3 cells; OVCAR-3, 1.25 μg/ml", "result": 44.0, "unit": "%"}, {"measurement": "percentage of cells with disorganized spindles", "setting": "OVCAR-3 cells; OVCAR-3, 2.5 μg/ml", "result": 57.3, "unit": "%"}, {"measurement": "concentration at which mitotic arrest was induced", "setting": "[3]; Example 5, FIG. 3, final concentrations", "result": 2.667, "unit": "µg/mL"}, {"measurement": "EC50", "setting": "[3]; Homo sapiens, SK-OV-3, 72 h, mitotic arrest, EC50=50% arrest rate, double thymidine block, time-lapse 3 days, at least 50 cells, read-out: SKOV3 EC50", "result": 0.79, "unit": "µg/mL"}, {"measurement": "inhibitory effects on cell growth", "setting": "[3]; summary of Table 2 (SKOV-3 mitotic arrest and lymphoma cell death)", "result": "remarkable inhibitory effects on cell growth"}, {"measurement": "cell fate of most cells", "setting": "[4]", "result": "mitotic death"}, {"measurement": "inhibitory effect on cell division", "setting": "[5]", "result": "no inhibitory effect on cell division"}]}]}
